Here are results for ten compounds from US9505745B2, “Enhancer of zeste homolog 2 inhibitors” (GlaxoSmithKline Intellectual Property (No.2) Limited, priority 2013, dated 2016).

For test [1], the target named is T1, EZH2 within the PRC2 complex (Homo sapiens (Human), UniProt Q15910). The test is described as follows: EZH2 methyltransferase SPA, mononucleosome substrate (Assay Protocol 1). The note with it: HeLa mononucleosome substrate, 3H-SAM, ≦10 nM approaches limit of detection. Format: biochemical. As to the method:
Compounds contained herein were evaluated for their ability to inhibit the methyltransferase activity of EZH2 within the PRC2 complex. Human PRC2 complex was prepared by co-expressing each of the 5 member proteins (FLAG-EZH2, EED, SUZ12, RbAp48, AEBP2) in Sf9 cells followed by co-purification. Enzyme activity was measured in a scintillation proximity assay (SPA) where a tritiated methyl group is transferred from 3H-SAM to a lysine residue on Histone H3 of a mononucleosome, purified from HeLa cells. Mononucleosomes were captured on SPA beads and the resulting signal is read on a ViewLux plate reader.
Part A. Compound Preparation
• 1. Prepare 10 mM stock of compounds from solid in 100% DMSO. • 2. Set up an 11-point serial dilution (1:3 dilution, top concentration 10 mM) in 100% DMSO for each test compound in a 384 well plate leaving columns 6 and 18 for DMSO controls. • 3. Dispense 100 nL of compound from the dilution plate into reaction plates (Grenier Bio-One, 384-well, Cat#784075). Part B. Reagent Preparation Prepare the following solutions: • 1. 50 mM Tris-HCl, pH 8: Per 1 L of base buffer, combine 1 M Tris-HCl, pH 8 (50 mL) and distilled water (950 mL). • 2. 1× Assay Buffer: Per 10 mL of 1× Assay Buffer, combine 50 mM Tris-HCl, pH 8 (9958 uL), 1 M MgCl2 (20 uL), 2 M DTT (20 uL), and 10% Tween-20 (2 uL) to provide a final concentration of 50 mM Tris-HCl, pH 8, 2 mM MgCl2, 4 mM DTT, 0.002% Tween-20. • 3. 2× Enzyme Solution: Per 10 mL of 2× Enzyme Solution, combine 1× Assay Buffer and PRC2 complex to provide a final enzyme concentration of 10 nM. • 4. SPA Bead Suspension: Per 1 mL of SPA Bead Suspension, combine PS-PEI coated LEADSeeker beads (40 mg) and H2O (1 mL) to provide a final concentration of 40 mg/mL. • 5. 2× Substrate Solution: Per 10 mL of 2× Substrate Solution, combine 1× Assay Buffer (9728.55 uL), 800 ug/mL mononucleosomes (125 uL), 1 mM cold SAM (4 uL), and 7.02 uM 3H-SAM (142.45 uL; 0.55 mCi/mL) to provide a final concentration of 5 ug/mL nucleosomes, 0.2 uM cold SAM, and 0.05 uM 3H-SAM. • 6. 2.67× Quench/Bead Mixture: Per 10 mL of 2.67× Quench/Bead Mixture, combine ddH2O (9358 uL), 10 mM cold SAM (267 uL), 40 mg/mL Bead Suspension (375 uL) to provide a final concentration of 100 uM cold SAM and 0.5 mg/mL SPA beads. Part C. Assay Reaction in 384-well Grenier Bio-One Plates Compound Addition • 1. Dispense 100 nL/well of 100× Compound to test wells (as noted above). • 2. Dispense 100 nL/well of 100% DMSO to columns 6 & 18 for high and low controls, respectively. Assay • 1. Dispense 5 uL/well of 1× Assay Buffer to column 18 (low control reactions). • 2. Dispense 5 uL/well of 2× Enzyme Solution to columns 1-17, 19-24. • 3. Spin assay plates for ˜1 min at 500 rpm. • 4. Stack the assay plates, covering the top plate. • 5. Incubate the compound/DMSO with the enzyme for 30 min at room temperature. • 6. Dispense 5 uL/well of 2× Substrate Solution to columns 1-24. • 7. Spin assay plates for ˜1 min at 500 rpm. • 8. Stack the assay plates, covering the top plate. • 9. Incubate the assay plates at room temperature for 1 hour. Quench/Bead Addition • 1. Dispense 5 uL/well of the 3× Quench/Bead Mixture to columns 1-24. • 2. Seal the top of each assay plate with adhesive TopSeal. • 3. Spin assay plates for ˜1 min at 500 rpm. • 4. Equilibrate the plates for >20 min. Read plates • 1. Read the assay plates on the Viewlux Plate Reader utilizing the 613 nm emission filter with a 300 s read time.
Reagent addition can be done manually or with automated liquid handler. • The final DMSO concentration in this assay is 1%. • The positive control is in column 6; negative control is in column 18. • Final starting concentration of compounds is 100 µM. Results
Percent inhibition was calculated relative to the DMSO control for each compound concentration and the resulting values were fit using standard IC50 fitting parameters within the ABASE data fitting software package.

Test [2] addresses T1, EZH2 within the PRC2 complex. Nature of the test: EZH2 methyltransferase SPA, biotinylated histone H3K27 peptide substrate (Assay Protocol 2). Format: biochemical. The note with it: 3H-SAM, ≦10 nM approaches limit of detection. Put shortly: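 Five-member human PRC2 complex (FLAG-EZH2, EED, SUZ12, RbAp48, AEBP2) co-expressed in Sf9 cells, 1 nM final, with 10 uM biotinylated H3K27 peptide, 0.15 uM 3H-SAM plus 2.85 uM cold SAM, pH 8, 60 min at rt. Quenched with cold SAM; SPA signal; IC50 from 11-point curves vs DMSO.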

Structures can show the parent of a compound that is named as a salt.

T1 sequence (Q15910 whole entry): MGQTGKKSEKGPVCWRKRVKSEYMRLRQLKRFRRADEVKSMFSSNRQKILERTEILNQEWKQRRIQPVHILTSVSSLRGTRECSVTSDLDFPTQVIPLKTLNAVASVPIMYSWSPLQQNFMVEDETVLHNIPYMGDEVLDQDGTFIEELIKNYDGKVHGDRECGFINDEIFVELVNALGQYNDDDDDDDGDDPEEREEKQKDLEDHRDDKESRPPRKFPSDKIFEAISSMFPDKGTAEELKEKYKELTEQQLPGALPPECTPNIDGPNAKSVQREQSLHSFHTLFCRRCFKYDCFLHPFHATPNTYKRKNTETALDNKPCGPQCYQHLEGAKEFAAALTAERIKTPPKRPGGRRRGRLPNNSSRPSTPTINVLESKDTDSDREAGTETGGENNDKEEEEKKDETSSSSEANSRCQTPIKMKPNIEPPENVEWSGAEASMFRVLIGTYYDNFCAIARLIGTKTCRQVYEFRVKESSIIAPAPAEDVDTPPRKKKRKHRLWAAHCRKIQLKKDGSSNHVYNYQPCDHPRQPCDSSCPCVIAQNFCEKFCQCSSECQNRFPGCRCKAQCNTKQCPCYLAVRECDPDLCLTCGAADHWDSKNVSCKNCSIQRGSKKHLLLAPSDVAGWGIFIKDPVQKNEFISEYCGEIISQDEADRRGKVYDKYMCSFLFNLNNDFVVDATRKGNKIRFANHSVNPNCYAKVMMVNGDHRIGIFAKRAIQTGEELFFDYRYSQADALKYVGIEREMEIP
T1 sequence (O75530 whole entry partner): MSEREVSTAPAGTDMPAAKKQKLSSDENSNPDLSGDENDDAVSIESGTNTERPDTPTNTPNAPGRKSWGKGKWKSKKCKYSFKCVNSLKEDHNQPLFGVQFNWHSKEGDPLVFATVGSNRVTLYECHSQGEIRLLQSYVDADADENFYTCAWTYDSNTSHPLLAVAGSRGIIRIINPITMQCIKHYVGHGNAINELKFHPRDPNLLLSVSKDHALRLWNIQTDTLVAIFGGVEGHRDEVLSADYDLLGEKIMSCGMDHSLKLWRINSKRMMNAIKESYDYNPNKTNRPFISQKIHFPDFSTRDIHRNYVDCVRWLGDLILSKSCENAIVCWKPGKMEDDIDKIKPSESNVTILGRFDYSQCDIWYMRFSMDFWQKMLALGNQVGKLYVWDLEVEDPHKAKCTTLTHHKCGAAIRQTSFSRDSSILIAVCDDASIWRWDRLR
T1 sequence (Q15022 whole entry partner): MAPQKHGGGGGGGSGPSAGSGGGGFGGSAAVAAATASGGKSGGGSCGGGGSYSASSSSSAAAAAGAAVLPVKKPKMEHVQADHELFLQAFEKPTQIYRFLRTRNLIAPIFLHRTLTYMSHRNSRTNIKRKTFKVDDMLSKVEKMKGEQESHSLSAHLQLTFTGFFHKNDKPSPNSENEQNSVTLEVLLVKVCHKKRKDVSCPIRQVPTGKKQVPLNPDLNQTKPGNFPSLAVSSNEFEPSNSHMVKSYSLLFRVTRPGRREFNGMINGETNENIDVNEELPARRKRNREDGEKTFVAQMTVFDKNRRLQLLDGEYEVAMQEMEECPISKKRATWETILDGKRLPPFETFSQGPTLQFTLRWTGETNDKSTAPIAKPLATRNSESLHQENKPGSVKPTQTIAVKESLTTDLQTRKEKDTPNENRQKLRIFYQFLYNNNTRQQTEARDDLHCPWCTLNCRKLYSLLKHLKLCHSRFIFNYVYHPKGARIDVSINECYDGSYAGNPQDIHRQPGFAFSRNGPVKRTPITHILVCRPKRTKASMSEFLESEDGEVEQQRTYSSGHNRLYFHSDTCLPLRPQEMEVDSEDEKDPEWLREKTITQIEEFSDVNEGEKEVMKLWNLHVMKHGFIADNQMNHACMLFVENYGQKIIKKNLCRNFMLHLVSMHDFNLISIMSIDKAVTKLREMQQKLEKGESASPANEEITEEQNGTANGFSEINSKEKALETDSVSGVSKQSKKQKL
T1 sequence (Q09028 whole entry partner): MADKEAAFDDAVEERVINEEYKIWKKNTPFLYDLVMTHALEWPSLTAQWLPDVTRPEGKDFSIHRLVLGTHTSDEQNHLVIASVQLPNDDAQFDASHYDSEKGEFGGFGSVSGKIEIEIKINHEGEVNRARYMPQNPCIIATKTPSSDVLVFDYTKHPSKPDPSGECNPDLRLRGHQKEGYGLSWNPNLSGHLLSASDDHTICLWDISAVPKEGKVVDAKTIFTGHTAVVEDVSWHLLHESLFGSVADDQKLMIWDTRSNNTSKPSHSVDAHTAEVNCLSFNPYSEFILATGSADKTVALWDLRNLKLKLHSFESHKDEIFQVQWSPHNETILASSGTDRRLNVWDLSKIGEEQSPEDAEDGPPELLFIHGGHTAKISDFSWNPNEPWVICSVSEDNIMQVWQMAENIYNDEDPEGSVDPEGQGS
T1 sequence (Q6ZN18 whole entry partner): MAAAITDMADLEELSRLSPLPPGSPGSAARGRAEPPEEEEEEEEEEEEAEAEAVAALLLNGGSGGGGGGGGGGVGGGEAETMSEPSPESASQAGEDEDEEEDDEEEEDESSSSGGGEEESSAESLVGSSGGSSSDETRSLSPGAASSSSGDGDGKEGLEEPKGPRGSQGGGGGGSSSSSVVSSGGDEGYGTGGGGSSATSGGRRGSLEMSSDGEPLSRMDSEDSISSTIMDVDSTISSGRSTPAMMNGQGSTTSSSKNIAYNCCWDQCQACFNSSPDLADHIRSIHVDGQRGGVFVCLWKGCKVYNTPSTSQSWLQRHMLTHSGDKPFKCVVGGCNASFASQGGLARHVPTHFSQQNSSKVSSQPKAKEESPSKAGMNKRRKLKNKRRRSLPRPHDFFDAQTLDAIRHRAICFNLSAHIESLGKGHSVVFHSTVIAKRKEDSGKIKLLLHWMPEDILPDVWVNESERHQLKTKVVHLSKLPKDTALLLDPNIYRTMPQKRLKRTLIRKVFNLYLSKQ

Regarding `Cc1cc(C)c(CNC(=O)c2csc(-c3cnn(C4CCNCC4)c3)c2C)c(=O)[nH]1` [Example 23, N-((4,6-dimethyl-2-oxo-1,2-dihydropyridin-3-yl)methyl)-4-methyl-5-(1-(piperidin-4-yl)-1H-pyrazol-4-yl)thiophene-3-carboxamide], the IC50 in test [1] turned out to be 501 nM; in test [2], 3980 nM.
On the same counts, the results for `Cc1cc(C)c(CNC(=O)c2csc(C3CCN(C(=O)OC(C)(C)C)C3)c2C)c(=O)[nH]1` (centres unmarked) [Example 24, tert-Butyl 3-(4-(((4,6-dimethyl-2-oxo-1,2-dihydropyridin-3-yl)methyl)carbamoyl)-3-methylthiophen-2-yl)pyrrolidine-1-carboxylate] are 251 nM and 3980 nM.
On the same counts, the results for `Cc1cc(C)c(CNC(=O)c2csc(N3CCCC3C)c2C)c(=O)[nH]1` (centres unmarked) [Example 25, N-((4,6-Dimethyl-2-oxo-1,2-dihydropyridin-3-yl)methyl)-4-methyl-5-(2-methylpyrrolidin-1-yl)thiophene-3-carboxamide] are 100 nM and 630 nM.
On the same counts, the results for `Cc1cc(C)c(CNC(=O)c2csc(C(C)N3CCOCC3)c2C)c(=O)[nH]1` (centres unmarked) [Example 26, N-((4,6-dimethyl-2-oxo-1,2-dihydropyridin-3-yl)methyl)-4-methyl-5-(1-morpholinoethyl)thiophene-3-carboxamide] are 630 nM and 5010 nM.
Turning to `Cc1cc(C)c(CNC(=O)c2csc(C(C)N3CCC(N(C)C)CC3)c2C)c(=O)[nH]1` (centres unmarked) [Example 27, N-((4,6-dimethyl-2-oxo-1,2-dihydropyridin-3-yl)methyl)-5-(1-(4-(dimethylamino)piperidin-1-yl)ethyl)-4-methylthiophene-3-carboxamide hydrochloride], the IC50 in test [1] turned out to be 31 nM; in test [2], 63 nM.
For `CCC(c1scc(C(=O)NCc2c(C)cc(C)[nH]c2=O)c1C)N1CCC(N(C)C)CC1` (centres unmarked) [Example 28, N-((4,6-dimethyl-2-oxo-1,2-dihydropyridin-3-yl)methyl)-5-(1-(4-(dimethylamino)piperidin-1-yl)propyl)-4-methylthiophene-3-carboxamide] the same measures were 19 nM and 63 nM.
On the same counts, the results for `CCC(c1scc(C(=O)NCc2c(C)cc(C)[nH]c2=O)c1C)N1CCOCC1` (centres unmarked) [Example 29, N-((4,6-dimethyl-2-oxo-1,2-dihydropyridin-3-yl)methyl)-4-methyl-5-(1-morpholinopropyl)thiophene-3-carboxamide] are 398 nM and 3160 nM.
As to `CCN(c1ccc(C(=O)NCc2c(C)cc(C)[nH]c2=O)s1)C1CCOCC1` [Example 30, N-((4,6-Dimethyl-2-oxo-1,2-dihydropyridin-3-yl)methyl)-5-(ethyl(tetrahydro-2H-pyran-4-yl)amino)thiophene-2-carboxamide], the IC50 in test [1] is 39800 nM; in test [2] it was at least 100000 nM.
On the same counts, the results for `CCN(c1scc(C(=O)NCc2c(C)cc(C)n(C)c2=O)c1C)C1CCOCC1` [Example 31, 5-(Ethyl(tetrahydro-2H-pyran-4-yl)amino)-4-methyl-N-((1,4,6-trimethyl-2-oxo-1,2-dihydropyridin-3-yl)methyl)thiophene-3-carboxamide] are 100 nM and 794 nM.
Turning to `CCN(c1scc(C(=O)NCc2c(C)cc(C)n(C)c2=O)c1C)[C@H]1CC[C@H](N(C)C)CC1` [Example 32, 5-(((trans)-4-(Dimethylamino)cyclohexyl)(ethyl)amino)-4-methyl-N-((1,4,6-trimethyl-2-oxo-1,2-dihydropyridin-3-yl)methyl)thiophene-3-carboxamide], the IC50 is at most 10 nM in test [1] and 50 nM in test [2].
